In test [1] the test system is SKBR3 (PI3Kα wild type) cells. The experiment in a line: CellTiter-Glo 2.0 luminescent cell viability assay, 72 hours, SKBR3 cells. The class given is cell-based. The settings on record: Homo sapiens, SK-BR-3, 72 h, SKBR3 (PI3Kα wild type) cells, CellTiter-Glo, approximately 72 hours; read-out: SKBR3 (WT) Viability IC50. The procedure, abridged: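 Viability measured via CTG luminescence following roughly 72 hours of compound exposure at 37° C. Dosing used a 10 um starting concentration diluted 1:4 over 10 points; percent-of-vehicle data fitted with a variable-slope four-parameter model for IC50.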
(In general: ATP-based viability assays read luminescence as a measure of living cells.)

The subject of test [2] is T47D (PI3Kα H1047R mutant) cells. The experiment in a line: CellTiter-Glo 2.0 luminescent cell viability assay, 72 hours, T47D cells. The format is cell-based. To be noted: Homo sapiens, T47D, 72 h, T47D (PI3Kα H1047R mutant) cells, CellTiter-Glo, approximately 72 hours; read-out: T47D (H1047R mutant) Viability IC50. The procedure, abridged: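 Viability was measured by CellTiter-Glo 2.0 luminescence after approximately 72 h of compound exposure at 37° C. Plating was 1000 cells per well the day before dosing, with ten 1:4 dilutions from a 10 µM top concentration. Values as percent of vehicle were fitted by variable-slope log(inhibitor) regression to give IC50.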

Usually IC50 stands for the concentration needed to halve the response being measured. Take `Cc1cc([C@@H](C)Nc2scnc2C(=O)O)c2nc(N3CCC(F)(F)CC3)c(C#N)c(=O)n2c1` [Example 11-292, (R)-5-((1-(3-cyano-2-(4,4-difluoropiperidin-1-yl)-7-methyl-4-oxo-4H-pyrido[1,2-a]pyrimidin-9-yl)ethyl)amino)thiazole-4-carboxylic acid]: the IC50 in test [1] is above 10 µM; in test [2], 3.95 µM.
For the molecule `Cc1cc([C@@H](C)Nc2ccc(F)cc2C(=O)O)c2nc(N3CCCCC3)c(C#N)c(=O)n2c1` [Example 11-293, (R)-2-((1-(3-cyano-7-methyl-4-oxo-2-(piperidin-1-yl)-4H-pyrido[1,2-a]pyrimidin-9-yl)ethyl)amino)-5-fluorobenzoic acid], the figures for the IC50 in test [1] and in test [2] were above 10 µM and 0.168 µM, respectively.
Regarding `Cc1cc([C@@H](C)Nc2ccccc2C(=O)O)c2nc(N3C[C@H]4CC[C@@H]3C4)c(C#N)c(=O)n2c1` [Example 11-294, 2-(((R)-1-(2-((1R,4S)-2-azabicyclo[2.2.1]heptan-2-yl)-3-cyano-7-methyl-4-oxo-4H-pyrido[1,2-a]pyrimidin-9-yl)ethyl)amino)benzoic acid], the IC50 in test [1] is above 10 µM; in test [2] it was 0.17 µM.
As to `Cc1cc([C@@H](C)Nc2ccccc2C(=O)O)c2nc(N3CCN(C)CC3)c(C#N)c(=O)n2c1` [Example 11-295, (R)-2-((1-(3-cyano-7-methyl-2-(4-methylpiperazin-1-yl)-4-oxo-4H-pyrido[1,2-a]pyrimidin-9-yl)ethyl)amino)benzoic acid], the IC50 in test [1] is above 10 µM; in test [2] it was 0.503 µM.
As for `Cc1cc([C@@H](C)Nc2ccccc2C(=O)O)c2nc(N3CCNCC3)c(C#N)c(=O)n2c1` [Example 11-296, (R)-2-((1-(3-cyano-7-methyl-4-oxo-2-(piperazin-1-yl)-4H-pyrido[1,2-a]pyrimidin-9-yl)ethyl)amino)benzoic acid], the IC50 in test [1] and in test [2] was above 10 µM in each case.
As for `Cc1cc([C@@H](C)Nc2ccccc2C(=O)O)c2nc(N3CCCC(F)(F)C3)c(C#N)c(=O)n2c1` [Example 11-297, (R)-2-((1-(3-cyano-2-(3,3-difluoropiperidin-1-yl)-7-methyl-4-oxo-4H-pyrido[1,2-a]pyrimidin-9-yl)ethyl)amino)benzoic acid], the IC50 in test [1] was above 10 µM; in test [2], 0.195 µM.
On the same counts, the results for `Cc1cc([C@@H](C)Nc2ccc(Cl)nc2C(=O)O)c2nc(N3CCC(F)(F)CC3)c(C)c(=O)n2c1` [Example 11-298, (R)-6-chloro-3-((1-(2-(4,4-difluoropiperidin-1-yl)-3,7-dimethyl-4-oxo-4H-pyrido[1,2-a]pyrimidin-9-yl)ethyl)amino)picolinic acid] are above 10 µM and 0.139 µM.
`Cc1cc(C(C)Nc2ccccc2)c2nc(N3CCCCC3)c(C#N)c(=O)n2c1` (stereo not shown) [Example 11-299, 7-methyl-4-oxo-9-(1-(phenylamino)ethyl)-2-(piperidin-1-yl)-4H-pyrido[1,2-a]pyrimidine-3-carbonitrile]: the results for the IC50 in test [1] and in test [2] were 9.32 µM and 9.25 µM, respectively.
In the case of `Cc1cc([C@H](C)Nc2ccccc2)c2nc(N3Cc4ccccc4C3)c(C#N)c(=O)n2c1` [Example 11-300, (S)-2-(isoindolin-2-yl)-7-methyl-4-oxo-9-(1-(phenylamino)ethyl)-4H-pyrido[1,2-a]pyrimidine-3-carbonitrile], the results for the IC50 in test [1] and in test [2] were above 10 µM and 3.71 µM, respectively.
On the same counts, the results for `Cc1cc([C@@H](C)Nc2ccccc2)c2nc(N3Cc4ccccc4C3)c(C#N)c(=O)n2c1` [Example 11-301, (R)-2-(isoindolin-2-yl)-7-methyl-4-oxo-9-(1-(phenylamino)ethyl)-4H-pyrido[1,2-a]pyrimidine-3-carbonitrile] are 8.83 µM and 9.15 µM.
`Cc1cc(C(C)Nc2ccccc2)c2nc(N3Cc4ccccc4C3)c(C#N)c(=O)n2c1` (stereo not shown) [Example 11-302, 2-(isoindolin-2-yl)-7-methyl-4-oxo-9-(1-(phenylamino)ethyl)-4H-pyrido[1,2-a]pyrimidine-3-carbonitrile]: the IC50 was 8.97 µM in test [1] and 1.44 µM in test [2].

The values above are taken from patent US20260078120A1, “SUBSTITUTED PYRIDOPYRIMIDINONES” (MIRATI THERAPEUTICS, INC., priority 2022, published 2026).
